Publication PMC11292009, “Mapping protein binding sites by photoreactive fragment pharmacophores” (Communications Chemistry, 2024)

What was measured:
Format in all cases: binding
[1] = test system: T1, KRas^G12D; assay: Intact MS photoaffinity labeling screen, KRas G12D (302 nm, LCMS-TOF); conditions: for experimental hit status KRAS-G12D: 0/1 flag; for MS labeling percentage, KRas: KRas G12D, 302 nm 10 min
T1 construct: purchased GSK/GenScript
Experimental: (§1) Using a plate-based format with one fragment per well, each fragment was incubated with the target proteins for 15 min to allow for the formation of non-covalent interactions. […] Finally, the results were directly analyzed from the plate using intact protein mass spectrometry by observing the mass additions that correspond to successful labeling (Fig. 2c, for labeling % values see Supplementary data). The library was first characterized against three benchmark proteins like carbonic anhydrase (CA), lysozyme (Lyo), and myoglobin (Myo).
(§2) The PhP library was screened against BRD4-BD1 and KRas^G12D as follows. […] The probe plate was placed on ice. 15 μL of protein stock solution (1 μM BRD4-BD1 (GSK/GenScript) or KRas^G12D (GSK/GenScript) in PBS buffer) was dispensed into wells containing fragments. The plate was left on ice for 15 min for incubation, then irradiated at 302 nm for 10 min, and centrifuged (1000 rpm, 1 min) to remove any bubbles. […] The deconvoluted spectra were analyzed using R Studio software.

[2] = test system: T2, STAT5B-NTD; assay: Intact MS labeling screen, STAT5B-NTD conjugated with photocatalyst Ir-G2-PEG3-COOH (450 nm); conditions: 450 nm 10 min;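 further: 0.14 µL of 100 mM DMSO fragment stock added to the conjugate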
T2 construct: His-SUMO (N, cleaved yes); made in house; host or cells: E. coli BL21 RILP
Experimental: For the photocatalysis experiments, 1.4 µL photocatalyst (in 1.4 mM DMSO solution, 10 eq) was pre-incubated with 1.5 µL coupling reagent (0.75 µL, 5.6 mM EDC (20 eq)+0.75 µL 4.2 mM NHS and 1.5 µL 2.1 mM (15 eq) BOP for 30 min in dark. 30 µL STAT5B-NTD (in 7 µM concentration) was added and incubated further at room temperature overnight or at 37 °C for 1 h in dark. After addition of 0.14 µL PhP (in 100 mM DMSO) the solution was further incubated in dark for 1 h. Irradiation was carried out using 450 nm LED lamp (7.6Vx0A) for 10 min at 4 °C.
(§3) During the analysis, the column temperature was maintained at a constant 60 °C, and a sample volume of 3 µL was injected for each analysis. Data acquisition was conducted in positive ion mode within the m/z 100–2000 (mass-to-charge ratio) range. For the full protocol and spectra of the hits, see Supplementary Note 2.

[3] = test system: lysozyme (Lyo); assay: Intact protein MS photoaffinity labeling screen, lysozyme; conditions: intact protein MS after 10 min irradiation
Experimental: as §1

[4] = test system: T3, BRD4-BD1; assay: Intact MS photoaffinity labeling screen, BRD4-BD1 (302 nm, LCMS-TOF); conditions: for experimental hit status BRD4-BD1: 0/1 flag; for MS labeling percentage, BRD4: BRD4-BD1, 302 nm 10 min
T3 construct: screened the PhP library against the first bromodomain of BRD4 (BRD4-BD1); purchased GSK/GenScript
Experimental: as §1, §2

[5] = test system: carbonic anhydrase II (CA); assay: Intact protein MS photoaffinity labeling screen, carbonic anhydrase; conditions: intact protein MS after 10 min irradiation
Experimental: as §1

[6] = test system: myoglobin (Myo); assay: Intact protein MS photoaffinity labeling screen, myoglobin; conditions: intact protein MS after 10 min irradiation
Experimental: as §1

[7] = test system: T2, STAT5B-NTD; assay: Intact MS photoaffinity labeling screen, STAT5B-NTD (365 nm, UHPLC-MS); conditions: for experimental hit status STAT5B-NTD: 0/1 flag; for MS labeling percentage, STAT5B: STAT5B-NTD, 365 nm 10 min, no photocatalyst;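 on MS labeling percentage, STAT5B: 0.17 µL of 100 mM DMSO fragment stock added to the protein sample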
Experimental: STAT5B protein in 7 µM concentration in pH 7.4 PBS buffer was pre-incubated with 0.17 µL PhP (in 100 mM DMSO solution) for 1 h at room temperature in dark. Irradiation was carried out at 4 °C for 10 min using 365 nm UV lamp.
as §3

For `Cc1nn(C)cc1CNC(=O)CCC1(C)N=N1` [PhP021, Cc1nn(C)cc1CNC(=O)CCC2(C)N=N2], the “experimental hit status KRAS-G12D” value [1] was 0, the “MS labeling percentage, KRas” value [1] was 0.2% and the “MS labeling percentage, STAT5B+photocat” value [2] was 0.4%. The “MS labeling percentage, Lyo” value [3] was 0%, the “experimental hit status BRD4-BD1” value [4] was 0 and the “MS labeling percentage, BRD4” value [4] was 0.9%. The “MS labeling percentage, CA” value [5] was 0.7%, the “MS labeling percentage, Myo” value [6] was 0.3% and the “experimental hit status STAT5B-NTD” value [7] was 0. The “MS labeling percentage, STAT5B” value [7] was 1%.
For `CC1(CCC(=O)NCCCCN2CCOCC2)N=N1` [PhP022, N1=NC1(C)CCC(=O)NCCCCN2CCOCC2], the “experimental hit status KRAS-G12D” value [1] was 0, the “MS labeling percentage, KRas” value [1] was 0.5% and the “MS labeling percentage, STAT5B+photocat” value [2] was 0.4%. The “MS labeling percentage, Lyo” value [3] was 0%, the “experimental hit status BRD4-BD1” value [4] was 0 and the “MS labeling percentage, BRD4” value [4] was 0.6%. The “MS labeling percentage, CA” value [5] was 0.5%, the “MS labeling percentage, Myo” value [6] was 0.2% and the “experimental hit status STAT5B-NTD” value [7] was 0. The “MS labeling percentage, STAT5B” value [7] was 1%.
With `Cc1cccc2nc(CNC(=O)CCC3(C)N=N3)[nH]c12` [PhP023, c1ccc(C)c(c12)[nH]c(n2)CNC(=O)CCC3(C)N=N3] the “experimental hit status KRAS-G12D” value [1] was 0, the “MS labeling percentage, KRas” value [1] was 0.7% and the “MS labeling percentage, STAT5B+photocat” value [2] was 0%. The “MS labeling percentage, Lyo” value [3] was 0%, the “experimental hit status BRD4-BD1” value [4] was 0 and the “MS labeling percentage, BRD4” value [4] was 0.9%. For the same molecule, the “MS labeling percentage, CA” value [5] was 0.3%, the “MS labeling percentage, Myo” value [6] was 0.2% and the “experimental hit status STAT5B-NTD” value [7] was 0. For the same molecule, the “MS labeling percentage, STAT5B” value [7] was 1%.
In the case of `CC1(CCC(=O)NCc2cccc(C(=O)OC(C)(C)C)c2)N=N1` [PhP024, CC(C)(C)OC(=O)c1cccc(c1)CNC(=O)CCC2(C)N=N2], the “experimental hit status KRAS-G12D” value [1] is reported as 0, the “MS labeling percentage, KRas” value [1] is reported as 0.1% and the “MS labeling percentage, STAT5B+photocat” value [2] is reported as 7.2%. For the same molecule, the “MS labeling percentage, Lyo” value [3] was 0%, the “experimental hit status BRD4-BD1” value [4] was 0 and the “MS labeling percentage, BRD4” value [4] was 1.4%. The “MS labeling percentage, CA” value [5] was 0.2%, the “MS labeling percentage, Myo” value [6] was 0.2% and the “experimental hit status STAT5B-NTD” value [7] was 0. For the same molecule, the “MS labeling percentage, STAT5B” value [7] was 0%.
With `CC1(CCC(=O)NCc2ccccc2NS(C)(=O)=O)N=N1` [PhP025, CS(=O)(=O)Nc1ccccc1CNC(=O)CCC2(C)N=N2] the “experimental hit status KRAS-G12D” value [1] was 0, the “MS labeling percentage, KRas” value [1] was 0.1% and the “MS labeling percentage, STAT5B+photocat” value [2] was 1.2%. For the same molecule, the “MS labeling percentage, Lyo” value [3] was 0%, the “experimental hit status BRD4-BD1” value [4] was 0 and the “MS labeling percentage, BRD4” value [4] was 0.2%. For the same molecule, the “MS labeling percentage, CA” value [5] was 0.2%, the “MS labeling percentage, Myo” value [6] was 0.1% and the “experimental hit status STAT5B-NTD” value [7] was 0. For the same molecule, the “MS labeling percentage, STAT5B” value [7] was 0%.
For `Cc1ccc(C(NC(=O)CCC2(C)N=N2)c2ccccn2)cc1` (stereo not shown) [PhP026, n1ccccc1C(c(cc2)ccc2C)NC(=O)CCC3(C)N=N3], the “experimental hit status KRAS-G12D” value [1] was 0, the “MS labeling percentage, KRas” value [1] was 0.3% and the “MS labeling percentage, STAT5B+photocat” value [2] was 5%. The “MS labeling percentage, Lyo” value [3] was 0.4%, the “experimental hit status BRD4-BD1” value [4] was 0 and the “MS labeling percentage, BRD4” value [4] was 0.4%. For the same molecule, the “MS labeling percentage, CA” value [5] was 0.4%, the “MS labeling percentage, Myo” value [6] was 0.2% and the “experimental hit status STAT5B-NTD” value [7] was 0. The “MS labeling percentage, STAT5B” value [7] was 1%.
With `CC1(CCC(=O)NCCNC(=O)c2ccc(Cl)cc2)N=N1` [PhP027, N1=NC1(C)CCC(=O)NCCNC(=O)c2ccc(Cl)cc2] the “experimental hit status KRAS-G12D” value [1] was 0, the “MS labeling percentage, KRas” value [1] was 0.1% and the “MS labeling percentage, STAT5B+photocat” value [2] was 5.2%. For the same molecule, the “MS labeling percentage, Lyo” value [3] was 0%, the “experimental hit status BRD4-BD1” value [4] was 0 and the “MS labeling percentage, BRD4” value [4] was 0.5%. The “MS labeling percentage, CA” value [5] was 0.4%, the “MS labeling percentage, Myo” value [6] was 0.2% and the “experimental hit status STAT5B-NTD” value [7] was 0. For the same molecule, the “MS labeling percentage, STAT5B” value [7] was 1%.
